Measured values taken from ChEMBL document CHEMBL5537135, “Novel antimicrobial peptides modified with fluorinated sulfono-γ-AA having high stability and targeting multidrug-resistant bacteria infections” (Eur J Med Chem, 2024).
Active and inactive are the calls of the source. The calls are words filed in the database; no cut-off is given here. Numbered stars: 1 amine (or outer) side, 2 acyl side, 3 side chain; on linkers, the order of the positions; unused ones are H or OH. Square brackets hold non-standard residues; d marks the D form. Peptide text beside a SMILES is read from it. * marks the point of attachment. X3 = CC(C)C[C@@H](CN(CC(N)=O)S(=O)(=O)c1ccc(C(F)(F)F)cc1)N*; X2 = CC(C)C[C@H](N)CN(CC(=O)[*:2])[*:1]; X1 = O=S(=O)(c1ccc(C(F)(F)F)cc1)*

Assays:
Staphylococcus aureus [1] = assay: Synergistic antibacterial activity against methicillin-resistant Staphylococcus aureus S5 assessed as fractional inhibitory concentration index in presence of polymyxin B by checkerboard assay; format: functional
Staphylococcus aureus [2] = assay: Synergistic antibacterial activity against Staphylococcus aureus ATCC 33591 assessed as fractional inhibitory concentration index in presence of polymyxin B by checkerboard assay; format: functional
Staphylococcus aureus [3] = assay: Antibacterial activity against methicillin-resistant Staphylococcus aureus ATCC 33591 infected in full-thickness wound BALB/c mouse model assessed as reduction in inflammatory infiltration at 1 mg/kg, ip administered for 1 to 48 hrs and measured after 3 days; format: functional, organism-based; conditions: time 1-120 hrs
Pseudomonas aeruginosa [4] = assay: Antibacterial activity against Pseudomonas aeruginosa ATCC 27853 infected in C57BL/6 mouse pneumonia model assessed as decrease in TNF-alpha level in lung at 2.5 to 10 mg/kg, ip administered for 1 to 48 hrs and measured after 3 days; format: functional, organism-based; conditions: dose 2.5-10 mg/kg, time 1-120 hrs
Pseudomonas aeruginosa [5] = assay: Antibacterial activity against Pseudomonas aeruginosa ATCC 27853 infected in C57BL/6 mouse pneumonia model assessed as decrease in IL-1beta level in lung at 2.5 to 10 mg/kg, ip administered for 1 to 48 hrs and measured after 3 days; format: functional, organism-based; conditions: dose 2.5-10 mg/kg, time 1-120 hrs
Pseudomonas aeruginosa [6] = assay: Bactericidal activity against Pseudomonas aeruginosa ATCC 27853 assessed as reduction in viable bacteria at 4 times MIC measured for 1 min by time-kill assay; format: functional, organism-based
[7] = Toxicity in mouse assessed as skin injury at 40 mg/kg, sc measured for 5 to 1440 mins by H and E staining analysis; format: organism-based; conditions: in vivo, time 5-1440 min
Staphylococcus aureus [8] = assay: Synergistic antibacterial activity against methicillin-resistant Staphylococcus aureus S5 assessed as fractional inhibitory concentration index in presence of vancomycin by checkerboard assay; format: functional
Staphylococcus aureus [9] = assay: Antibacterial activity against methicillin-resistant Staphylococcus aureus ATCC 33591 infected in full-thickness wound BALB/c mouse model assessed as reduction in TNF-alpha level in skin at 0.25 to 1 mg/kg, ip administered for 1 to 48 hrs and measured after 3 days; format: functional, organism-based; conditions: dose 0.25-1 mg/kg, time 1-120 hrs
Pseudomonas aeruginosa [10] = assay: Additive antibacterial activity against multidrug-resistant Pseudomonas aeruginosa 124 assessed as fractional inhibitory concentration index in presence of polymyxin B by checkerboard assay; format: functional
[11] = Toxicity in mouse assessed as liver lesion at 20 mg/kg, ip measured for 30 to 60 mins by H and E staining based analysis; format: organism-based; conditions: in vivo, time 30-60 min
Staphylococcus aureus [12] = assay: Antibacterial activity against methicillin-resistant Staphylococcus aureus ATCC 33591 infected in full-thickness wound BALB/c mouse model at 0.25 to 1 mg/kg, ip administered for 1 to 48 hrs and measured after 3 days; format: functional, organism-based; conditions: dose 0.25-1 mg/kg, time 1-120 hrs
Staphylococcus aureus [13] = assay: Antibacterial activity against methicillin-resistant Staphylococcus aureus ATCC 33591 infected in full-thickness wound BALB/c mouse model assessed as log reduction in bacterial load at 0.25 mg/kg, ip administered for 1 to 48 hrs and measured after 3 days by SEM analysis; format: functional; conditions: time 1-120 hrs
Cell membrane [14] = assay: Induction of membrane disruption in Pseudomonas aeruginosa ATCC 27853 assessed as membrane shrinkage at 2 to 4 times MIC incubated for 24 hrs by SEM analysis; format: cell membranes
Staphylococcus aureus [15] = assay: Antibacterial activity against […] Staphylococcus aureus ATCC 33591; format: functional, organism-based
[16] = Toxicity in mouse assessed as spleen lesion at 20 mg/kg, ip measured for 30 to 60 mins by H and E staining based analysis; format: organism-based; conditions: in vivo, time 30-60 min
Cell membrane [17] = assay: Induction of membrane disruption in Pseudomonas aeruginosa ATCC 27853 assessed as membrane lysis at 2 to 4 times MIC incubated for 24 hrs by SEM analysis; format: cell membranes
[18] = Toxicity in mouse assessed as heart lesion at 20 mg/kg, ip measured for 30 to 60 mins by H and E staining based analysis; format: organism-based; conditions: in vivo, time 30-60 min
Pseudomonas aeruginosa [19] = assay: Additive antibacterial activity against multidrug-resistant Pseudomonas aeruginosa 124 assessed as fractional inhibitory concentration index in presence of ceftazidime by checkerboard assay; format: functional
Pseudomonas aeruginosa [20] = assay: Antibacterial activity against Pseudomonas aeruginosa ATCC 27853 infected in C57BL/6 mouse pneumonia model assessed as decrease in IL-6 level in lung at 2.5 to 10 mg/kg, ip administered for 1 to 48 hrs and measured after 3 days; format: functional, organism-based; conditions: dose 2.5-10 mg/kg, time 1-120 hrs
Staphylococcus aureus [21] = assay: Antibacterial activity against methicillin-resistant Staphylococcus aureus ATCC 33591 infected in full-thickness wound BALB/c mouse model assessed as reduction in IL-6 level in skin at 0.25 to 1 mg/kg, ip administered for 1 to 48 hrs and measured after 3 days; format: functional, organism-based; conditions: dose 0.25-1 mg/kg, time 1-120 hrs

Compound: CC(C)C[C@@H](CN(CC(N)=O)S(=O)(=O)c1ccc(C(F)(F)F)cc1)NC(=O)[C@H](CCCCN)NC(=O)[C@H](CCCCN)NC(=O)[C@H](CC(C)C)NC(=O)[C@H](CC(C)C)NC(=O)[C@H](CCCCN)NC(=O)[C@H](CC(C)C)NC(=O)[C@@H](N)Cc1ccccc1 (H-FLKLLKK-X3)
- fractional inhibitory concentration index (FICI) (Staphylococcus aureus [1]): 0.75
- fractional inhibitory concentration index (FICI) (Staphylococcus aureus [2]): 0.5

Compound: CC(C)C[C@H](N)CN(CC(=O)N[C@@H](CCCCN)C(=O)N[C@@H](CC(C)C)C(=O)N[C@@H](CC(C)C)C(=O)N[C@@H](CCCCN)C(=O)N[C@@H](CCCCN)C(=O)N[C@@H](CC(C)C)C(=O)N[C@@H](CC(C)C)C(N)=O)S(=O)(=O)c1ccc(C(F)(F)F)cc1 (X1-[X2]KLLKKLL-NH2)
- Activity (Staphylococcus aureus [3]): Active
- Activity (Pseudomonas aeruginosa [4]): Active
- Activity (Pseudomonas aeruginosa [5]): Active
- Activity (Pseudomonas aeruginosa [6]): Active
- Activity [7]: Non-Toxic
- fractional inhibitory concentration index (FICI) (Staphylococcus aureus [8]): 2
- Activity (Staphylococcus aureus [9]): Active
- fractional inhibitory concentration index (FICI) (Pseudomonas aeruginosa [10]): 0.5
- Activity [11]: Non-Toxic
- Activity (Staphylococcus aureus [12]): Active
- log(activity) (Staphylococcus aureus [13]): 0.82
- Activity (Cell membrane [14]): Active
- Activity (Staphylococcus aureus [15]): Active
- Activity [16]: Non-Toxic
- Activity (Cell membrane [17]): Active
- Activity [18]: Non-Toxic
- fractional inhibitory concentration index (FICI) (Pseudomonas aeruginosa [19]): 1
- Activity (Pseudomonas aeruginosa [20]): Active
- Activity (Staphylococcus aureus [21]): Active
